# Source: patent US20190083638A1, “NICLOSAMIDE-CONJUGATED POLYPEPTIDE NANOPARTICLES” (priority 2017, published 2019)
# What was measured:
# [1] = test system: tumor cell lines from multiple tumor types; conditions: breast, lung, prostate, ovary, blood, pancreas, colon tumor cell lines; read-out: IC50 range, inhibition of proliferation of tumor cell lines; cited from earlier work
# HCT-116 tumors = assay: Tumor inhibition in HCT-116 cell xenograft model; assay type: in vivo, male nude mice; conditions: i.v. every third day for two weeks, NIC 5 mg/kg, CP—NIC 20 mg/kg NIC-equivalent, n=8
# Description: Prior to in vivo implantation, HCT116 cells were washed twice in Minimum Essential Media (MEM) (51200-038; Invitrogen; Carlsbad, Calif.). HCT116 cells were implanted in the right flank of male nude mice by subcutaneous injection of 1-2×10^6 cells in 50 μL. All animals were treated in accordance with National Institute of Health Guide for the Care and Use of Laboratory Animals under protocols approved by the Duke University Institutional Animal Care and Use Committee.
# (§1) Controls or drugs were administered by tail vein infusion (50 μL/min) of 500 μL. […] Tumor dimensions and BW were measured 3-4 times a week, and the tumor volume was calculated according to Volume [mm^3]=length×width×depth×½.
# (§2) Mice were monitored for BW loss, and euthanized upon exceeding 15% loss in BW or if their tumors grew to a volume greater than 1000 mm3. The maximum tolerated dose (MTD) was determined in mice with tumors. Cumulative survival curves were compared using Kaplan-Meier analysis, and the Sidak test, Tukey Test and Wilcoxon test were calculated using GraphPad Prism 6 software.
# Body-weight loss was also measured throughout the treatment of free NIC and CP—NIC conjugate. All treatments were tolerated for the period of the study (FIG. 11). […] It was hypothesized that the mechanism of action of NIC released from nanoparticles in this study is the same as free NIC as previously characterized.
# in vivo = conditions: iv
# Description: Blood samples were obtained 0.5 h prior to dosing and at 0.08, 0.17, 0.33, 0.67, 1.5, 4, 8, 12, 24 hours after drug administration (n=4 per time point).
# Blood samples were obtained at 0.5 h prior to the dosing and at 0.08, 0.17, 0.33, 0.67, 1.5, 4, 8, 12, and 24 h after drug administration.
# [2] = Pilot study, LD50 of NIC formulated in DMA/PEG 400; design: species or system nude mice; conditions: nude, mouse, in vivo
# [3] = test system: Wnt/β-catenin signaling in HCT-116 cells; assay: Western blot of Wnt signaling (cytosolic β-catenin, c-myc, cyclin D1); assay type: cell-based, human; conditions: HCT116, western blotting
# Description: Western blots were performed following a procedure similar to that reported previously (Osada et al., Cancer Res., 2011, 71, 4172-4182). […] After treatment, the cytosolic fraction was isolated as previously described (Chen et al., Biochemistry, 2009, 48, 10267-10274). Immunoblot was used to detect the 3-catenin, c-myc and cyclin D1 protein levels in cytosol, with β-actin immunoblots used for loading control.
# Wnt signaling activity was quantified as cytosolic β-catenin level by Western blot.
# [4] = free drug solution at 200 mg/kg BW; cited from earlier work
# [5] = Dose escalation / tolerability in mice bearing subcutaneous HCT116 tumors; conditions: male, nude, mouse, in vivo, intravenous, 5 mg/kg BW; mice with tumors, 3 days/week for 2 weeks, tail vein infusion; read-out: maximum tolerated dose
# Description: as §1, §2
# [6] = test system: HCT116 human colon carcinoma cells; assay: In vitro cell proliferation (MTS assay); assay type: cell-based; conditions: HCT-116, read-out: IC50, concentration of NIC (or NIC equivalent) to inhibit proliferation of cells by 50%, HCT116, 72 hours of exposure
# Description: HCT116 human colon carcinoma cells were purchased from American Type Culture Collection (Manassas, Va., USA) and maintained in McCoy's 5A medium supplemented with 10% fetal bovine serum (FBS, Atlanta Biologicals, Lawrenceville, Ga., USA), 200 U/ml penicillin, and 50 ng/ml streptomycin (Invitrogen, Grand island, NY, USA). Cells were grown at 37° C. in 5% CO2. The cells were plated at 5,000 cells per well into 96 well plates and treated with compounds (n=3) for 48 hours, at which point the cell proliferation was measured using the colorimetric MTS assay (Promega, Madison, Wis., USA). Values were normalized as a percentage of DMSO treated cells. The dose response data were fit with sigmoidal dose-response using Graphpad Prism.
compound,measurement,setting,value
"O=C(Nc1ccc([N+](=O)[O-])cc1Cl)c1cc(Cl)ccc1O [NIC, Niclosamide]",IC50,[1],130 to 4000 nM
same,median survival time,HCT-116 tumors; Kaplan-Meier,16 days
same,mean tumor volume,HCT-116 tumors; ten days after start of treatment,661 mm3
same,% AUC-inf extrapolated (AUC-last/AUC-inf) * 100,"in vivo; CD1, mouse",0.33 ± 0.45%
same,MRT inf,"in vivo; CD1, mouse",54 ± 28.8 min
same,MRT last,"in vivo; CD1, mouse",54 ± 26.4 min
same,Tmax,"in vivo; CD1, mouse",12 ± 10.2 min
same,half-life,"in vivo; CD1, mouse",60 ± 13.2 min
same,Cmax,"in vivo; CD1, mouse, 128 mg/kg",6200 ± 4230 ng/mL
same,Vss (=CL × MRT; overall distrib. Volume at steay state),in vivo; mouse,0.7 ± 0.28 L (per kg BW)
same,LD50,[2],5 mg/kg
same,levels of Wnt target proteins c-myc and cyclin D1,[3],similarly reduced
same,time plasma levels of NIC were above the IC50 for Wnt inhibition,[4],less than 1 h
same,MTD at 2 weeks,[5],5 mg/kg
same,IC50,[6],850 nM
